Data reported in patent US12568967B2, “Compositions comprising pyridine carboxylate herbicides with synthetic auxin herbicides or auxin transport inhibitors” (priority 2018, dated 2026).
“And” between values parts separate entries of the source, which are not always exact repeats. Identical values can stand only once. Like-named read-outs stand apart in the source and are kept apart here.

Legend:
[1] = tested on: Brassica napus (winter rape, BRSNW); experiment: Greenhouse postemergence trial BRSNW; assay type: in vivo; conditions: for plant injury at 10 g/ha / plant injury at 15 g/ha: Brassica napus, post-emergence
[2] = tested on: Papaver rhoeas (corn poppy), herbicide-resistant (PAPRH-R); experiment: Greenhouse postemergence trial PAPRH-R; assay type: in vivo; conditions: PAPRH-R; for % visual injury, Obs: applied alone
[3] = tested on: Setaria faberi (giant foxtail, SETFA); experiment: Greenhouse postemergence trial SETFA; assay type: in vivo; conditions: Compound A 10 g/ha
Method: (§1) Seeds of the desired test plant species were planted in a 90:10% v/v (volume/volume) mixture of PRO-MIX® BX (Premier Tech Horticulture, Quakertown, PA, USA) and PROFILE® GREENS GRADE™ (Profile Products LLC, Buffalo Grove, IL, USA) planting mixture, which typically has a pH of 5.2 to 6.2 and an organic matter content of at least 50 percent, in plastic pots with a surface area of 103.2 square centimeters (cm^2). […] The plants were grown for 7-36 days (d) in a greenhouse with an approximate 14-hour (h) photo-period which was maintained at about 23° C. during the day and 22° C. during the night. Nutrients and water were added on a regular basis and supplemental lighting was provided with overhead metal halide 1000-Watt lamps as necessary. The plants were employed for testing when they reached the second or third true leaf stage.
(§2) Emulsifiable concentrates of each of each pyridine carboxylate herbicide (Compound A or Compound B) were prepared at 100 grams acid equivalent per liter (g ae/L). The emulsifiable concentrates also included a safener, cloquintocet-mexyl, at 120 grams active ingredient per liter (g ai/L), unless otherwise noted below. An aliquot of each emulsifiable concentrate was placed in a 25 mL glass vial and diluted with an aqueous mixture of 1.25% (v/v) ACTIROB® B esterified rapeseed oil (Bayer Crop Science, Research Triangle Park, NC, USA) or MSO® Concentrate with LECI-TECH® methylated soybean oil (Loveland Products, Loveland, CO, USA) to obtain concentrated stock solutions at the highest application rate for each herbicide, based upon a 12 milliliter (mL) application volume at a rate of 187 liters per hectare (L/ha). The concentrated stock solutions were further diluted with an aqueous mixture of 1.25% v/v ACTIROB® B or MSO® Concentrate with LECI-TECH® to obtain stock solutions at reduced application rates for each herbicide. Spray solutions of the herbicide combinations (Compound A or Compound B plus synthetic auxin herbicide or auxin transport inhibitor) were prepared by adding weighed amounts or aliquots of the synthetic auxin herbicide or auxin transport inhibitor to the stock solutions of Compound A or Compound B to form 12-mL spray solutions in two-way combinations.
(§3) The spray solutions were applied to the plant material with an overhead Mandel track sprayer equipped with 8002E nozzles calibrated to deliver 187 L/ha over an application area of 0.503 square meters (m^2) at a spray height of 18 inches (43 centimeters (cm)) above the average plant canopy. Control plants were sprayed in the same manner with the solvent blank. All pyridine carboxylate herbicide (component a) application rates are given as “g ae/ha” and all synthetic auxin herbicide or auxin transport inhibitor (component b) application rates are given as “g ai/ha.”
(§4) The treated plants and control plants were placed in a greenhouse as described above and watered by sub-irrigation to prevent wash-off of the test compounds. After 20-22 d, the condition of the test plants as compared with that of the control plants was determined visually and scored on a scale of 0 to 100 percent where 0 corresponds to no injury and 100 corresponds to complete kill.

[4] = tested on: Sorghum vulgare (grain sorghum, SORVU); experiment: Greenhouse postemergence trial SORVU; assay type: in vivo; conditions: Compound A 10 g/ha
Method: as §1
Emulsifiable concentrates of each of each pyridine carboxylate herbicide (Compound A or Compound B) were prepared at 100 grams acid equivalent per liter (g ae/L). The emulsifiable concentrates also included a safener, cloquintocet-mexyl, at 120 grams active ingredient per liter (g ai/L), unless otherwise noted below. An aliquot of each emulsifiable concentrate was placed in a 25 mL glass vial and diluted with an aqueous mixture of 1.25% (v/v) ACTIROB® B esterified rapeseed oil (Bayer Crop Science, Research Triangle Park, NC, USA) or MSO® Concentrate with LECI-TECH® methylated soybean oil (Loveland Products, Loveland, CO, USA) to obtain concentrated stock solutions at the highest application rate for each herbicide, based upon a 12 milliliter (mL) application volume at a rate of 187 liters per hectare (L/ha). The concentrated stock solutions were further diluted with an aqueous mixture of 1.25% v/v ACTIROB® B or MSO® Concentrate with LECI-TECH® to obtain stock solutions at reduced application rates for each herbicide. Spray solutions of the herbicide combinations (Compound A or Compound B plus synthetic auxin herbicide or auxin transport inhibitor) were prepared by adding weighed amounts or aliquots of the synthetic auxin herbicide or auxin transport inhibitor to the stock solutions of Compound A or Compound B to form 12-mL spray solutions in two-way combinations. […]
as §4

[5] = tested on: Cirsium arvense (Canadian thistle, CIRAR); experiment: Greenhouse postemergence trial CIRAR; assay type: in vivo
Method: as §1, §2, §3, §4

[6] = tested on: Amaranthus retroflexus (pigweed, AMARE); experiment: Greenhouse postemergence trial AMARE; assay type: in vivo;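 also: Greenhouse-grown plants sprayed at second to third true leaf stage, injury rated by eye after 20-22 d versus solvent-blank sprayed controls, 0 = no injury, 100 = complete kill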
Method: The plants were grown for 7-36 days (d) in a greenhouse with an approximate 14-hour (h) photo-period which was maintained at about 23° C. during the day and 22° C. during the night. Nutrients and water were added on a regular basis and supplemental lighting was provided with overhead metal halide 1000-Watt lamps as necessary. The plants were employed for testing when they reached the second or third true leaf stage.
The emulsifiable concentrates also included a safener, cloquintocet-mexyl, at 120 grams active ingredient per liter (g ai/L), unless otherwise noted below.
Control plants were sprayed in the same manner with the solvent blank. All pyridine carboxylate herbicide (component a) application rates are given as “g ae/ha” and all synthetic auxin herbicide or auxin transport inhibitor (component b) application rates are given as “g ai/ha.”
as §4

[7] = tested on: Lamium purpureum (purple deadnettle, LAMPU); experiment: Greenhouse postemergence trial LAMPU; conditions: LAMPU; for % visual injury, Obs: applied alone
[8] = Compound A 10 g/ha, without safener

Compound: N#CCOC(=O)c1nc(-c2ccc3cc[nH]c3c2F)c(F)c(N)c1Cl [Compound A, cyanomethyl 4-amino-3-chloro-5-fluoro-6-(7-fluoro-1H-indol-6-yl)pyridine-2-carboxylate]
- visual injury, Obs ([1]; BRSNW, Compound A 10 g/ha alone): 65%
- visual injury, Obs ([1]; BRSNW, Compound A 15 g/ha alone): 80%
- % visual injury (Obs) ([1]; BRSNW, alone 10 g/ha): 68%
- plant injury at 10 g/ha ([1]; BRSNW, Compound A 10 g/ha, read-out: % visual injury Obs): 65%
- plant injury at 10 g/ha ([1]; BRSNW, Compound A 10 g/ha, read-out: % visual injury, Obs): 68%
- plant injury at 15 g/ha ([1]; BRSNW, Compound A 15 g/ha, read-out: % visual injury Obs): 80%
- plant injury at 10 g/ha ([1]; BRSNW, alone, 10 g/ha, read-out: % visual injury Obs): 65%
- plant injury at 15 g/ha ([1]; BRSNW, alone, 15 g/ha, read-out: % visual injury Obs): 80%
- plant injury at 15 g/ha ([1]; BRSNW, applied alone, 15 g/ha, read-out: % visual injury, Obs): 80%
- BRSNW Obs (% visual injury) [1, 8]: 65%
- % visual injury Obs ([2]; Compound A 10 g/ha): 90%
- visual injury, Obs ([2]; Compound A 10 g/ha alone): 90%
- visual injury, Obs ([2]; Compound A 15 g/ha alone): 100%
- % visual injury Obs ([2]; alone, 10 g/ha): 90%
- % visual injury Obs ([2]; alone, 15 g/ha): 100%
- % visual injury, Obs ([2]; 10 g/ha): 90%
- % visual injury, Obs ([2]; 15 g/ha): 100%
- pest or weed control at […] ([2]; Papaver rhoeas, post-emergence, Compound A 7.5 g/ha, read-out: % visual injury Obs): 85%
- pest or weed control at 10 g/ha ([2]; Papaver rhoeas, post-emergence, Compound A 10 g/ha, read-out: % visual injury Obs): 90%
- pest or weed control at 15 g/ha ([2]; Papaver rhoeas, post-emergence, Compound A 15 g/ha, read-out: % visual injury Obs): 100%
- SETFA Obs (% visual injury) [3]: 70%
- SETFA Obs (% visual injury) ([3]; without safener): 0%
- % visual injury, Obs ([3]; SETFA): 0%
- SORVU Obs (% visual injury) ([4]; without safener): 0%
- % visual injury, Obs ([4]; SORVU): 0%
- % visual injury, Obs ([5]; CIRAR, Compound A 10 g/ha): 20% and 30% and 28%
- visual injury, Obs ([5]; CIRAR, Compound A 10 g/ha alone): 50%
- visual injury, Obs ([5]; CIRAR, Compound A 15 g/ha alone): 60%
- % visual injury (Obs) ([5]; CIRAR, alone 10 g/ha): 23% and 30%
- % visual injury Obs ([5]; CIRAR, alone 10 g/ha): 50%
- % visual injury Obs ([5]; CIRAR, alone, 15 g/ha): 60%
- % visual injury, Obs ([5]; CIRAR, applied alone, 10 g/ha): 50% and 55%
- % visual injury, Obs ([5]; CIRAR, applied alone, 15 g/ha): 60%
- pest or weed control at […] ([5]; Cirsium arvense, post-emergence, CIRAR, Compound A 7.5 g/ha, read-out: % visual injury Obs): 30%
- pest or weed control at 10 g/ha ([5]; Cirsium arvense, post-emergence, CIRAR, Compound A 10 g/ha, read-out: % visual injury Obs): 50%
- pest or weed control at 15 g/ha ([5]; Cirsium arvense, post-emergence, CIRAR, Compound A 15 g/ha, read-out: % visual injury Obs): 60%
- CIRAR Obs (% visual injury) ([5]; Compound A 10 g/ha): 20% and 23%
- CIRAR % visual injury Obs ([5]; Compound A 10 g/ha (Table 42)): 20%
- CIRAR % visual injury Obs ([5]; Compound A 10 g/ha (Table 43)): 20%
- CIRAR % visual injury Obs ([5]; Compound A 10 g/ha (Table 44)): 20%
- CIRAR Obs (% visual injury) [5, 8]: 28%
- % visual injury, Obs ([6]; AMARE, Compound A 10 g/ha): 100% and 90%
- % visual injury (Obs) ([6]; AMARE, alone 10 g/ha): 98% and 90%
- % visual injury, Obs ([6]; AMARE, applied alone, 10 g/ha): 85%
- AMARE Obs (% visual injury) ([6]; Compound A 10 g/ha): 100% and 98%
- AMARE % visual injury Obs ([6]; Compound A 10 g/ha (Table 42)): 100%
- AMARE % visual injury Obs ([6]; Compound A 10 g/ha (Table 43)): 100%
- AMARE % visual injury Obs ([6]; Compound A 10 g/ha (Table 44)): 100%
- visual injury, Obs ([7]; Compound A 10 g/ha alone): 70%
- % visual injury Obs ([7]; Compound A 15 g/ha): 75%
- visual injury, Obs ([7]; Compound A 15 g/ha alone): 75%
- % visual injury (Obs) ([7]; alone 10 g/ha): 90%
- % visual injury Obs ([7]; alone 10 g/ha): 70%
- % visual injury Obs ([7]; alone, 15 g/ha): 75%
- % visual injury, Obs ([7]; 10 g/ha): 70%
- % visual injury, Obs ([7]; 15 g/ha): 75%
